# Literature values in patent US9775839B2, “2-pyrazine carboxamides as spleen tyrosine kinase inhibitors” (Merck Sharp & Dohme Corp., priority 2014, dated 2017).
# Key:
# [1] = allergic rhinitis, phase II clinical trial
# PGD2 = conditions: dosed intranasally, allergic rhinitis, phase I/II study
smiles,measurement,setting,value
Oc1cccc(Nc2ncc(F)c(Nc3cccc(O)c3)n2)c1 [Example R112],efficacy versus placebo,[1],lack of efficacy
same,change in PGD2,PGD2,statistically significant decrease
same,clinical safety,PGD2,safe across a range of indicators
